Literature values, collected in patent publication US20220079880A1, “SOLID MICELLAR COMPOSITIONS OF CANNABINOID ACIDS” (priority 2019, published 2022).
Read-outs that look alike come from different tables or passages of the source.

Columns and labels:
[1] = target: T1, PPARγ (Homo sapiens, UniProt P37231)
T1 sequence (P37231 1-505): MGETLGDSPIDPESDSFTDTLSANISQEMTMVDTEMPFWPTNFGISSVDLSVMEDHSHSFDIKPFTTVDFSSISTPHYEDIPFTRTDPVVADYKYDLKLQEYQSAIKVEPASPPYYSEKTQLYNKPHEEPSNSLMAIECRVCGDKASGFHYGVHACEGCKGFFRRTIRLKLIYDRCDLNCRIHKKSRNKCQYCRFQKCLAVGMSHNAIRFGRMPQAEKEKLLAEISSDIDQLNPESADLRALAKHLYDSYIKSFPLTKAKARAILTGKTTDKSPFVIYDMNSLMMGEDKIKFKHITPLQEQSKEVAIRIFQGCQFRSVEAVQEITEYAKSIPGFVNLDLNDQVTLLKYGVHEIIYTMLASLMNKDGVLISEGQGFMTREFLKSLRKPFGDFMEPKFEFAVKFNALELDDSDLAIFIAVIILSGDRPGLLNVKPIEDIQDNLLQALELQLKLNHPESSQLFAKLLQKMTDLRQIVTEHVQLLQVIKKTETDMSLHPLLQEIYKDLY

[2] = system: prostate cancer cells; details: animal studies
[3] = system: MBS model of epilepsy; details: mice
[4] = system: MBS model of epilepsy; details: rats
[5] = system: seizures; details: response = reduced seizure frequency of greater than 50%; surveys
[6] = target: T2, COX-2 (Homo sapiens, UniProt P35354)
T2 sequence (P35354 18-604): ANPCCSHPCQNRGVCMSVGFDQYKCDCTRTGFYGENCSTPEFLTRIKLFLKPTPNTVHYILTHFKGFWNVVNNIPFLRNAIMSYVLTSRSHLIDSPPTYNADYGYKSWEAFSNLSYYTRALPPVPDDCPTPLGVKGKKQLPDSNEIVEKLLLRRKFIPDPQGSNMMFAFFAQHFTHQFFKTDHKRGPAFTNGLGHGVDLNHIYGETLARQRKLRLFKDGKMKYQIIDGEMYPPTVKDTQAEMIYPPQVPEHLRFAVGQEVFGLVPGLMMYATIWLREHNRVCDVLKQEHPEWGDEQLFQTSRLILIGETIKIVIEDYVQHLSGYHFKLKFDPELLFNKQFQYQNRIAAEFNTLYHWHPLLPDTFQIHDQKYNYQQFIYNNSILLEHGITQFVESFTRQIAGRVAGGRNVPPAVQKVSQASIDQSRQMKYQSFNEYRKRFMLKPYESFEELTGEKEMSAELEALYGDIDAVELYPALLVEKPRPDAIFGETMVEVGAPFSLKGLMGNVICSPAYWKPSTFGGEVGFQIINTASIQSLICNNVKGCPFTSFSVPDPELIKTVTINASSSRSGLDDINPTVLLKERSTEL

[7] = nano-size lipid-based systems
[8] = target: COX-1 (Homo sapiens, UniProt P23219)
COX-1, sequence (P23219 24-599): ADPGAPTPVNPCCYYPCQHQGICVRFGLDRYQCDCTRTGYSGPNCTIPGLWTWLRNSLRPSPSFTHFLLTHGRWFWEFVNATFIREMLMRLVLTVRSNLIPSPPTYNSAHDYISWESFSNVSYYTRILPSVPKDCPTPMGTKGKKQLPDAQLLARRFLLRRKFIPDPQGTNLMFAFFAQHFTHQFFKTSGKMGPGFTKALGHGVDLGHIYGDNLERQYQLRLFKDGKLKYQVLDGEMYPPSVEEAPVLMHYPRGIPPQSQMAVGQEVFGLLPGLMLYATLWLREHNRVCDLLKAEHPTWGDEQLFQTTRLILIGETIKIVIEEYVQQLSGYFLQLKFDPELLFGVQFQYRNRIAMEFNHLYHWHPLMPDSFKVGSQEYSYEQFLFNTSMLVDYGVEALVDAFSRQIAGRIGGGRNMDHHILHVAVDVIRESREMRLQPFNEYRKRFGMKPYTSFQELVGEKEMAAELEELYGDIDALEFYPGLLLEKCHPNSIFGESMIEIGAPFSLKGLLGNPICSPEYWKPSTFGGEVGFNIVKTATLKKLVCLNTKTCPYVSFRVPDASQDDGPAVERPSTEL

[9] = receptor affinity and effect; purportedly
[10] = target: T3, 5-HT1A receptors (Homo sapiens, UniProt P08908)
T3 sequence (P08908 1-422): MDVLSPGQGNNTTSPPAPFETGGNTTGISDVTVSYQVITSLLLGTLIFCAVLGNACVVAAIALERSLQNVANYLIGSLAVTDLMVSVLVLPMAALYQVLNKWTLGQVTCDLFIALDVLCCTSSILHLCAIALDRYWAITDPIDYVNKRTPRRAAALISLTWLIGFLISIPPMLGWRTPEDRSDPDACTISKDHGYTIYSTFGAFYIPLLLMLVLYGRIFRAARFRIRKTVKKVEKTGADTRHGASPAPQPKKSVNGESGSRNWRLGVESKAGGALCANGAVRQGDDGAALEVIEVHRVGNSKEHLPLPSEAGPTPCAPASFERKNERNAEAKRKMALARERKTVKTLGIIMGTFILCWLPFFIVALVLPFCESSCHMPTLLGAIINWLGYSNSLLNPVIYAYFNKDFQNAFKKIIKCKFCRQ

[11] = target: TRPA1 (Homo sapiens, UniProt O75762)
TRPA1, sequence (O75762 whole entry, species assumed): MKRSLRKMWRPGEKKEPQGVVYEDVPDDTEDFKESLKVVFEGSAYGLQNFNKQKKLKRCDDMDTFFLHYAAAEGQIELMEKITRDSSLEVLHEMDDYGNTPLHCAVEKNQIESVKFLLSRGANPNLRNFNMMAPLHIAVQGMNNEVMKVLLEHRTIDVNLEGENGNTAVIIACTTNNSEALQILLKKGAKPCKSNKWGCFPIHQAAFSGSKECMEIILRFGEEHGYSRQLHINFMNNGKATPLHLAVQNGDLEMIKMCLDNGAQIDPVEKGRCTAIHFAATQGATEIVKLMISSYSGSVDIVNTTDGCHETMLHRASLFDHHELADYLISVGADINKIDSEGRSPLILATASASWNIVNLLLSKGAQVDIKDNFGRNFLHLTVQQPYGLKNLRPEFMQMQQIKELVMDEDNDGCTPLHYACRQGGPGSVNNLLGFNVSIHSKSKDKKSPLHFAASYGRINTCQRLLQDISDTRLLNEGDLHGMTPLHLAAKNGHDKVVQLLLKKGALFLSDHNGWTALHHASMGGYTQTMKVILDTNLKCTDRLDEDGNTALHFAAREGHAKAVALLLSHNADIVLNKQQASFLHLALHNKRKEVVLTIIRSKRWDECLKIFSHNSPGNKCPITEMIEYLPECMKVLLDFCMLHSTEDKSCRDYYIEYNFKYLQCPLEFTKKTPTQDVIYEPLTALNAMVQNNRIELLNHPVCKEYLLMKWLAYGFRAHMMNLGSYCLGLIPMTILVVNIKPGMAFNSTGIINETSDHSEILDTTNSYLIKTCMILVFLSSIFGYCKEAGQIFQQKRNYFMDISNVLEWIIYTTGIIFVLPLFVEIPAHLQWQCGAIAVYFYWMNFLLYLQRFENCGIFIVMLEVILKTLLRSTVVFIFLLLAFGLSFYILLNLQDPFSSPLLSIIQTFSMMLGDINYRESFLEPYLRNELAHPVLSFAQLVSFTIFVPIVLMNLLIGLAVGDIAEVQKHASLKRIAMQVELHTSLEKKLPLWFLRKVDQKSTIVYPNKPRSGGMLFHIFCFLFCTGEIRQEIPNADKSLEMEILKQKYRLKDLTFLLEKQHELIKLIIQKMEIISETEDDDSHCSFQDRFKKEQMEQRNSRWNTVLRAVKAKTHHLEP

[12] = target: TRPV1′ (Homo sapiens, UniProt Q8NER1)
TRPV1′, sequence (Q8NER1 whole entry, species assumed): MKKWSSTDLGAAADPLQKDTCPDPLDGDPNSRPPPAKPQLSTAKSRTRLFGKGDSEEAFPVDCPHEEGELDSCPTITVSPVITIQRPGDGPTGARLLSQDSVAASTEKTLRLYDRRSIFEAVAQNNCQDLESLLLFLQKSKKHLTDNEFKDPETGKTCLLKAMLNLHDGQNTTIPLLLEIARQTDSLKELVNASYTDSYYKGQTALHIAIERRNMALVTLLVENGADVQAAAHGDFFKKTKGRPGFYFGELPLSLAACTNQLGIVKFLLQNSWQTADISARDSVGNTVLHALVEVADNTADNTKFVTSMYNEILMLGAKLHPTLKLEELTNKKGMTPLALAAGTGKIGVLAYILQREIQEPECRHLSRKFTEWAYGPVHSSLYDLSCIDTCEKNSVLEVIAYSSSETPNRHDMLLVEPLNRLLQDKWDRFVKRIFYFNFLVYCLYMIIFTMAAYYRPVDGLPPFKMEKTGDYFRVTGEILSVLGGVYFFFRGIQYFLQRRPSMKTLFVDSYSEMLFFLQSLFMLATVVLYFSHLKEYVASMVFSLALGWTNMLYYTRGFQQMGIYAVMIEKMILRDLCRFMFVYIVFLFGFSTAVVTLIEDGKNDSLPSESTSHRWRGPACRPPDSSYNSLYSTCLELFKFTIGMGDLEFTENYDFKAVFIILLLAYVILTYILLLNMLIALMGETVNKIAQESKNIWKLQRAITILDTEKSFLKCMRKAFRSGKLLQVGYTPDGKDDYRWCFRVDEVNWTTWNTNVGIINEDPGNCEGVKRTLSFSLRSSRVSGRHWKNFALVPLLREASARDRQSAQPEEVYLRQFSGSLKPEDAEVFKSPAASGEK

[13] = target: TRPM8 (Homo sapiens, UniProt Q7Z2W7)
TRPM8, sequence (Q7Z2W7 whole entry, species assumed): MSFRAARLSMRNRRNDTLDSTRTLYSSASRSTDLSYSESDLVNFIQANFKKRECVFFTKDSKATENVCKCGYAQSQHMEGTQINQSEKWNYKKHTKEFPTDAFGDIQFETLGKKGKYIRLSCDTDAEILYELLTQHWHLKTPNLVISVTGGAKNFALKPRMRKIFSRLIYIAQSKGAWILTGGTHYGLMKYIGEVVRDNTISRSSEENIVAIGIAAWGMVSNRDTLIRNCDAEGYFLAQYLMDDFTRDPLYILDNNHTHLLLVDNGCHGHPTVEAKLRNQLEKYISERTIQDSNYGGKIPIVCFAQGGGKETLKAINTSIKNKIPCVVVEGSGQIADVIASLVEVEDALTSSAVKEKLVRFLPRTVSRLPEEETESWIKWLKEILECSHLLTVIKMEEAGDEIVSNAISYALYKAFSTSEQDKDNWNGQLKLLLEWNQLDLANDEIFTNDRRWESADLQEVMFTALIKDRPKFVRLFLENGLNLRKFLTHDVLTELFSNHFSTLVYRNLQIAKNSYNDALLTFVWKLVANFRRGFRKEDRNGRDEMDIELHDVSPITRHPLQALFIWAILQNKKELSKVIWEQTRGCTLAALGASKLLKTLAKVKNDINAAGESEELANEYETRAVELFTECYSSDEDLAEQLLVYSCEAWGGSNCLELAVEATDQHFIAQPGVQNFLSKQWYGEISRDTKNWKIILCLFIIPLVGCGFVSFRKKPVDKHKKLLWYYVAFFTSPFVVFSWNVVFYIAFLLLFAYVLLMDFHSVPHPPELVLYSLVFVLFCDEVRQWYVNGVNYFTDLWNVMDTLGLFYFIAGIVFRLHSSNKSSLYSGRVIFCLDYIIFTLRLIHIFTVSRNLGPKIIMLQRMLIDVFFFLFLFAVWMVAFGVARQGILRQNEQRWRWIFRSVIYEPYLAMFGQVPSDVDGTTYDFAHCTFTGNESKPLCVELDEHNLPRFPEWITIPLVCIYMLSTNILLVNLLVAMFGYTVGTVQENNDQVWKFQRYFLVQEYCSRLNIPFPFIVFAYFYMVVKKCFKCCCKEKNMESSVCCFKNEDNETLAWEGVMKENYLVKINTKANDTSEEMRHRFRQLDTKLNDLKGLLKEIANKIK

[14] = system: experimentally induced nausea; details: rats; 5HT1A receptor-mediated
[15] = system: MDA-MB-231 human breast cancer cells
[16] = target: GPR-55 (Homo sapiens, UniProt Q9Y2T6)
GPR-55, sequence (Q9Y2T6 whole entry, species assumed): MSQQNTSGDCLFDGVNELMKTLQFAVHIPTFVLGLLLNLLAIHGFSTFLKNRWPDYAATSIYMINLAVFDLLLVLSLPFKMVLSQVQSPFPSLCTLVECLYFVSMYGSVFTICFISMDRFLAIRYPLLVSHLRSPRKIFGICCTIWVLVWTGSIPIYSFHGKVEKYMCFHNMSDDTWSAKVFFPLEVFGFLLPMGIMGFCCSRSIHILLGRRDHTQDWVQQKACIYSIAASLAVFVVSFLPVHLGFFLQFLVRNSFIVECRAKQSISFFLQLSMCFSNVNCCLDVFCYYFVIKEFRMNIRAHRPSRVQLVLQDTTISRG

CCCCCc1cc(O)c(C/C=C(\C)CCC=C(C)C)c(O)c1C(=O)O [CBGa, cannabigerolic acid]
PPARγ binding compared with the corresponding neutral cannabinoid [1]: outperform

CCCCCc1cc2c(c(O)c1C(=O)O)[C@@H]1C=C(C)CC[C@H]1C(C)(C)O2 [THCa, tetrahydrocannabinolic acid]
PPARγ binding compared with the corresponding neutral cannabinoid [1]: outperform | effect on spread of prostate cancer cells [2]: limit the spread

C=C(C)[C@@H]1CCC(C)=C[C@H]1c1c(O)cc(CCCCC)cc1O [CBD, cannabidiol]
ED50 for the MBS model of epilepsy [3]: 85 mg/kg | ED50 for the MBS model of epilepsy [4]: 89 mg/kg | response rate [5]: ~47% | COX-2 inhibition, in words ([6]; compared with CBDa): not nearly as active | improvement in BA [7]: 10 ×

C=C(C)[C@@H]1CCC(C)=C[C@H]1c1c(O)cc(CCCCC)c(C(=O)O)c1O [CBDa, cannabidiolic acid]
concentration that inhibited COX-2 [6]: ~2 µM | COX-1 inhibition, in words [8]: does not inhibit | potency relative to CBD [9]: 1000-4000 × | affinity for 5-HT1A receptors over CBD [10]: 100 fold | PPARγ binding compared with the corresponding neutral cannabinoid [1]: outperform | activity at TRPA1 [11]: agonist | activity at TRPV1′ [12]: agonist | activity at TRPM8 [13]: agonist | effect on experimentally induced nausea [14]: suppressed | effect on migration of MDA-MB-231 cells [15]: inhibit migration | effect on GPR-55 [16]: inhibitory effects
